Laboratory results taken from patent US7241785B2, “Five-membered heterocyclic alkanoic acid derivative” (Takeda Pharmaceutical Company Limited, priority 2001, dated 2007).

Biological target: T1, PPARγ-RXRα heterodimer (Homo sapiens, UniProt P37231)
T1 construct: expressed in transfected cells
T1 sequence (P37231 1-477 isoform P37231-2): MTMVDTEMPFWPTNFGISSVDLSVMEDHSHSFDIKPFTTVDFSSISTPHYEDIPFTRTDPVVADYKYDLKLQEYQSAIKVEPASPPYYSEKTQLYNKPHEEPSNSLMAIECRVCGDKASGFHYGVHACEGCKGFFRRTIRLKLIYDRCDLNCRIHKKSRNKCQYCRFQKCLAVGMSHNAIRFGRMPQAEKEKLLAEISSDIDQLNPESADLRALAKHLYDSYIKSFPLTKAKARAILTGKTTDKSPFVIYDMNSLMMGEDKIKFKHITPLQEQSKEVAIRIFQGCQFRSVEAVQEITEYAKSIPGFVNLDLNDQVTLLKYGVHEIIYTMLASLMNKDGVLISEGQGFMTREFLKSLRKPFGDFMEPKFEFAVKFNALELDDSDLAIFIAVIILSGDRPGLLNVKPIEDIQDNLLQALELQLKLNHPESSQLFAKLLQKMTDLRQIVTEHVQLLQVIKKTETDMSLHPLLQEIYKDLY
T1 sequence (P19793 1-462 partner): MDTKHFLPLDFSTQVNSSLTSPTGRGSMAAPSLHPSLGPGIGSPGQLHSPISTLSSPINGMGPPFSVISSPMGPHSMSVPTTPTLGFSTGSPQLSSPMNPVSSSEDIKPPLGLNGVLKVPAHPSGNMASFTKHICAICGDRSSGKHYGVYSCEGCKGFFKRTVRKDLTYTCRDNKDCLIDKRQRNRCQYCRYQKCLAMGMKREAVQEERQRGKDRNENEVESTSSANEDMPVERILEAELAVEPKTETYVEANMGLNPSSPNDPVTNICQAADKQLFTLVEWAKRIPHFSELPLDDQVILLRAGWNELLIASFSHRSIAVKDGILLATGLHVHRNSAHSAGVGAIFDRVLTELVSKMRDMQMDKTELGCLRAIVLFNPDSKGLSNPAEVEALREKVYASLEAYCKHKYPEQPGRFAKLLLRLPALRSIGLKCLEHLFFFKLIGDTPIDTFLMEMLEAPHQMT
Assay: PPARγ-RXRα heterodimer ligand activity (luciferase reporter, PPARγ:RXRα:4ERPP/CHO-K1 cells)
Type: cell-based
Settings: concentration for 50% of maximum fold induction of luciferase, 48 hrs
Protocol: (PPARγ-RXRα Heterodimer Ligand Activity)
PPARγ:RXRα:4ERPP/CHO-K1 cells obtained in Reference Example 8a were cultured in HAM F12 medium (manufactured by NISSUI SEIYAKU) containing 10% fetal bovine serum [manufactured by Life Technologies, Inc., USA], seeded in a 96-well white plate [manufactured by Corning Coster Corporation, USA] at the density of 2×10^4 cells/well and cultured in a CO2 gas incubator at 37° C. overnight.
After washing the 96-well white plate with PBS (Phosphate-buffered saline), 90 μl of HAM F12 medium containing 0.1% fatty acid-free bovine serum albumin (BSA) and 10 μl of test compound were added, and the cells were cultured in a CO2 gas incubator at 37° C. for 48 hrs. The medium was removed and 40 μl of PicaGene 7.5 (manufactured by Wako Pure Chemical Industries, Ltd.) was added. After stirring, the luciferase activity was determined using Lumistar [manufactured by BMG Labtechnologies GmbH, Germany].
The fold induction was calculated from the luciferase activity of each test compound when the luciferase activity of the non-treatment group is taken as 1. The values of the test compound concentration and the fold induction were analyzed using PRISM 2.01 (produced by GraphPad Software Inc. USA) to calculate the EC50 values, the effective concentration of a test compound for 50% of the maximum fold induction.
Introduction of Human PPARγ- and RXRα-Expression Plasmid and Reporter Plasmid into CHO-K1 Cell and Establishment of Expressed Cell
After a CHO-K1 cell cultured in a tissue culture flask (750 ml) (produced by Corning Costar Corporation, USA) containing HAM F12 medium (produced by NISSUI SEIYAKU) supplemented with 10% fetal bovine serum (produced by Life Technologies, Inc., USA) was scraped by treating with 0.5 g/L trypsin-0.2 g/L EDTA (ethylenediaminetetraacetic acid) (produced by Life Technologies, Inc., USA), the cell was washed with PBS (phosphate-buffered saline) (produced by Life Technologies, Inc., USA), centrifuged (1000 rpm, 5 minutes), and then suspended in PBS. Subsequently, a DNA was introduced into the cell under the conditions shown below using GENE PULSER (produced by Bio-Rad Laboratories, USA).
Namely, to a cuvette having a 0.4 cm gap, added were 8×10^6 cells and 10 μg of plasmid pVgRXR2-hPPARγ obtained in Reference Example 7a and 10 μg of reporter plasmid pGL3-4ERPP-TK neo obtained in Reference Example 4a, which was subjected to electroporation at the voltage of 0.25 kV under the capacitance of 960 μF. Subsequently, the cell was transferred into a HAM F12 medium containing 10% fetal bovine serum and cultured for 24 hours and then the cell was scraped again and centrifuged, and then suspended in HAM F12 medium containing 10% fetal bovine serum supplemented with 500 μg/ml of GENETICIN, (produced by Life Technologies, Inc., USA) and 250 μg /ml of ZEOCIN (produced by Invitrogen, USA). The obtained suspension was diluted to the density of 10^4 cells/ml and inoculated to a 96-well plate (produced by Corning Costar Corporation, USA), which was cultured in a CO2 gas incubator at 37° C., whereby obtaining a GENETICIN- and ZEOCIN-resistant transformant.
Subsequently, after the transformant cell line thus obtained was cultured in a 24-well plate (produced by Corning Costar Corporation, USA), selected was a cell line in which the luciferase was expressed and induced, i.e., PPARγ:RXRα:4ERPP/CHO-K1 cell by the addition of 10 μM pioglitazone hydrochloride.

Cc1oc(-c2ccccc2)nc1COc1ccc(Sc2nc(-c3ccccc3)c(CCC(=O)O)o2)cc1 [Example 10, 3-[2-[4-(5-methyl-2-phenyl-4-oxazolylmethoxy)phenylthio]-4-phenyl-5-oxazolyl]propionic acid]
EC50: 9.9 nM
